The text below walks through data of publication PMC8113725, “Structure–activity relationship of ipglycermide binding to phosphoglycerate mutases” (The Journal of Biological Chemistry, 2021).

By IC50 is commonly meant the concentration that inhibits the measured activity by half. In general, Kd refers to the equilibrium constant for the complex coming apart. As a reminder, the koff is the first-order rate constant of dissociation. What is called kon is the rate constant with which the complex forms.

Read-outs that look alike come from different tables or passages of the source. Bridge positions count the residues as written; N and C are the ends. Square brackets hold non-standard residues; d marks the D form. Ends that are not written are not given here. Peptide text beside a SMILES is read from it. * marks the point of attachment. NHOH = ON*

For assay [1], the target named is T1, C. elegans iPGM (Caenorhabditis elegans, UniProt G5EFZ1). In words: PGM enzyme assay (enolase–pyruvate kinase coupled, Kinase-Glo Plus end point) and IC50 determination. To be noted: for IC50: iPGM ortholog not given. Type of assay: biochemical.
The target in another assay is D. immitis iPGM (Dirofilaria immitis, UniProt F4ZE01). In words: biochemical. To be noted: Di iPGM Ave IC50 (M).
The target in assay [2] is T1, C. elegans iPGM. In words: SPR binding kinetics and saturation binding, biotinylated iPGM on Biotin CAPture chip (Biacore S200). In general terms: SPR reads the build-up and loss of mass on a sensor chip optically.
Assay [3] deals with T2, E. coli iPGM (Escherichia coli, UniProt P37689). In words: biochemical.
Assay [4] deals with T2, E. coli iPGM. The assay can be described thus: SPR binding kinetics and saturation binding, biotinylated iPGM on Biotin CAPture chip (Biacore S200). To be noted: for koff / kon: LoQ = limit of quantitation.
A further assay has as its target T3, B. malayi iPGM (Brugia malayi, UniProt Q4VWF8).
T3 sequence (Q4VWF8 1-515): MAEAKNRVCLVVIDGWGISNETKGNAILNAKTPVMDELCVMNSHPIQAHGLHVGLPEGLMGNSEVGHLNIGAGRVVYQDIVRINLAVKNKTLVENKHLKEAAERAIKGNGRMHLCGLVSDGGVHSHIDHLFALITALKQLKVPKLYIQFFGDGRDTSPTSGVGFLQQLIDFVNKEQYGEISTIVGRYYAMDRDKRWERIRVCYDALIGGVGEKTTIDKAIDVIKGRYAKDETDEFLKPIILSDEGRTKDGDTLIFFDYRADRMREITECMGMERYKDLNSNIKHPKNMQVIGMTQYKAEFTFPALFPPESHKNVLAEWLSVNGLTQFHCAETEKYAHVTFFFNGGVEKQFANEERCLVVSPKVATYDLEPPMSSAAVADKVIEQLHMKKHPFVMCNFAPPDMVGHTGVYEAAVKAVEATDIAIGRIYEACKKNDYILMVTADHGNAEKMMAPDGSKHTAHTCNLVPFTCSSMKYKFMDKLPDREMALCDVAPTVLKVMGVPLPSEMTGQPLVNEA
In words: biochemical. Format: binding.

Assay [5] addresses T1, C. elegans iPGM. To be noted: read-out: KD, prior estimate; zone boundary analysis from a cross-titration of C. elegans iPGM enzyme versus Ce-2; cited from earlier work.
The next assay addresses T4, Ce-1 NHOH (synthetic construct, thioether N-8; SMILES …).
T4 chain: {CH2CO}-[dY]DYPGDHCYLYGT-{NHOH}
The assay can be described thus: SPR.

A further assay has as its target T5, Ce-2 (synthetic construct, thioether N-8).
T5 chain: {CH2CO}-[dY]DYPGDYCYLYGTC
The assay can be described thus: SPR.

For another assay, the target named is T6, Ce-2 Thr13Ser (synthetic construct, thioether N-8).
T6 chain: {CH2CO}-[dY]DYPGDYCYLYGSC
In words: SPR.

[6] abbreviates: SPR, 25 °C, global fit to 1:1 binding model.
Setting [7] is: SPR, Req hyperbolic fit where steady state reached, else koff/kon.
[8] abbreviates: Supplementary Table 5, SPR, E.c. iPGM.

For `CC[C@H](C)[C@H](NC(=O)[C@H](Cc1ccc(O)cc1)NC(=O)[C@@H]1CSCC(=O)N[C@H](Cc2ccc(O)cc2)C(=O)N[C@@H](CC(=O)O)C(=O)N[C@@H](Cc2ccc(O)cc2)C(=O)N2CCC[C@H]2C(=O)NCC(=O)N[C@@H](CC(=O)O)C(=O)N[C@@H](Cc2ccc(O)cc2)C(=O)N1)C(=O)N[C@@H](Cc1ccc(O)cc1)C(N)=O` [Ce-2d L10I], the half-inhibitory concentration (IC50) was 0.025 µM on C. elegans iPGM [1] (IC50, text, C. elegans by contrast with nematode orthologs) and 5.03e-07 M against D. immitis iPGM.

In the case of `CC(C)C[C@@H]1NC(=O)[C@H](Cc2ccc(O)cc2)NC(=O)[C@H](CS)NC(=O)[C@H](Cc2ccc(O)cc2)NC(=O)[C@H](CC(=O)O)NC(=O)CNC(=O)[C@@H]2CCCN2C(=O)[C@H](Cc2ccc(O)cc2)NC(=O)[C@H](CC(=O)O)NC(=O)[C@@H](Cc2ccc(O)cc2)NC(=O)CSC[C@@H](C(N)=O)NC(=O)[C@H]([C@@H](C)O)NC(=O)CNC(=O)[C@H](Cc2ccc(O)cc2)NC1=O` [Ce-2 [Y1-->C14]], the inhibitory activity entry on C. elegans iPGM [1] was “inactive”. On D. immitis iPGM, this molecule displayed a 50% inhibitory concentration (IC50) of 6.52e-06 M.

In the case of `CC(C)C[C@H](NC(=O)[C@H](Cc1ccc(O)cc1)NC(=O)[C@@H]1CSCC(=O)N[C@H](Cc2ccc(O)cc2)C(=O)N[C@@H](CC(=O)O)C(=O)N[C@@H](Cc2ccc(O)cc2)C(=O)N2CCC[C@H]2C(=O)NCC(=O)N[C@@H](CC(=O)O)C(=O)N[C@@H](Cc2ccc(O)cc2)C(=O)N1)C(=O)N[C@@H](Cc1ccc(O)cc1)C(=O)NCC(=O)N[C@H](C(=O)N[C@@H](CS)C(N)=O)[C@@H](C)O` [Ce-2], the equilibrium dissociation constant (Kd) at C. elegans iPGM [2] was 0.0382 nM; on E. coli iPGM [4] (setting [7]) it was about 0.07 µM; at E. coli iPGM [4] (Supplementary Table 5, SPR, E.c. iPGM, unit inferred) it was 0.0692 µM; on B. malayi iPGM (setting [7]) it was 0.0005 µM; on B. malayi iPGM (Supplementary Table 5, SPR, B.m. iPGM, unit inferred) it was 0.00047 µM; on C. elegans iPGM [5] it was 0.07 nM. For the same molecule, the koff is 3.23e-05 s⁻¹ at C. elegans iPGM [2]; 3.2e-05 s⁻¹ on C. elegans iPGM [2] (setting [6]); 0.0048 s⁻¹ at E. coli iPGM [4] (SPR, 25 °C, global fit to 1:1 binding model, read-out: koff); 0.00484 s⁻¹ at E. coli iPGM [4] (setting [8]); 0.000224 s⁻¹ on B. malayi iPGM; 0.00022 s⁻¹ on B. malayi iPGM (setting [6]). The kon was determined as 1.11e+06 M⁻¹ s⁻¹ on C. elegans iPGM [2]; 1.1e+06 M⁻¹ s⁻¹ on C. elegans iPGM [2] (setting [6]); 100000 M⁻¹ s⁻¹ on E. coli iPGM [4] (SPR, 25 °C, global fit to 1:1 binding model, read-out: kon); 102000 M⁻¹ s⁻¹ at E. coli iPGM [4] (setting [8]); 482000 M⁻¹ s⁻¹ at B. malayi iPGM; 480000 M⁻¹ s⁻¹ on B. malayi iPGM (setting [6]). Further, the IC50 against E. coli iPGM [3] (IC50) is over 0.1 µM; at E. coli iPGM [3] ([…]), 0.129 µM; at D. immitis iPGM, 8.27e-10 M.

For `CC(=O)N[C@@H](Cc1ccc(O)cc1)C(=O)NCC(=O)N[C@H](C(=O)N[C@@H](CS)C(N)=O)[C@@H](C)O` [Ac-YGTCNH2, Ac-YGTC-CONH2] (Ac-YGTC-NH2), the IC50 on C. elegans iPGM [1] (IC50, metal-ion–coordinating sequence alone) was over 500 µM; at D. immitis iPGM, over 0.001 M.

B1: iPGM (protein)
chain: T3 sequence (Q4VWF8 1-515)
Turning to B1, the dissociation constant Kd came to 0.012 µM with Ce-1 NHOH, 0.5 nM in the assay with Ce-2 and 0.085 nM in the assay with Ce-2 Thr13Ser.

B2: iPGM (protein)
chain: MLVSKKPMVLVILDGYGYREEQQDNAIFSAKTPVMDALWANRPHTLIDASGLEVGLPDRQMGNSEVGHVNLGAGRIVYQDLTRLDVEIKDRAFFANPVLTGAVDKAKNAGKAVHIMGLLSAGGVHSHEDHIMAMVELAAERGAEKIYLHAFLDGRDTPPRSAESSLKKFEEKFAALGKGRVASIIGRYYAMDRDNRWDRVEKAYDLLTLAQGEFQADTAVAGLQAAYARDENDEFVKATVIRAEGQPDAAMEDGDALIFMNFRADRAREITRAFVNADFDGFARKKVVNVDFVMLTEYAADIKTAVAYPPASLVNTFGEWMAKNDKTQLRISETEKYAHVTFFFNGGVEESFKGEDRILINSPKVATYDLQPEMSSAELTEKLVAAIKSGKYDTIICNYPNGDMVGHTGVMEAAVKAVEALDHCVEEVAKAVESVGGQLLITADHGNAEQMRDPATGQAHTAHTNLPVPLIYVGDKNVKAVEGGKLSDIAPTMLSLMGMEIPQEMTGKPLFIVE
In the case of B2, the Kd was 5 µM with Ce-1 NHOH, 69 nM in the assay with Ce-2 and 1.3 nM with Ce-2 Thr13Ser.

B3: iPGM (protein)
chain: MFVALGAQIYRQYFGRRGMAMANNSSVANKVCLIVIDGWGVSEDPYGNAILNAQTPVMDKLCSGNWAQIEAHGLHVGLPEGLMGNSEVGHLNIGAGRVIYQDIVRINLAVKNNKFVTNESLVDACDRAKNGNGRLHLAGLVSDGGVHSHIDHMFALVKAIKELGVPELYLHFYGDGRDTSPNSGVGFLEQTLEFLEKTTGYGKLATVVGRYYAMDRDNRWERINVAYEAMIGGVGETSDEAGVVEVVRKRYAADETDEFLKPIILQGEKGRVQNDDTIIFFDYRADRMREISAAMGMDRYKDCNSKLAHPSNLQVYGMTQYKAEFPFKSLFPPASNKNVLAEWLAEQKVSQFHCAETEKYAHVTFFFNGGLEKQFEGEERCLVPSPKVATYDLQPEMSAAGVADKMIEQLEAGTHPFIMCNFAPPDMVGHTGVYEAAVKACEATDIAIGRIYEATQKHGYSLMVTADHGNAEKMKAPDGGKHTAHTCYRVPLTLSHPGFKFVDPADRHPALCDVAPTVLAIMGLPQPAEMTGVSIVQKI
As for B3, the Kd with Ce-1 NHOH stood at 0.00011 µM; with Ce-2, 0.038 nM; with Ce-2 Thr13Ser it was 0.029 nM.
